# Legend:
# [1] = test system: Nitrogen Oxide (NO) generation; experiment: Inhibition of nitrogen oxide (NO) generation in LPS-treated Raw 264.7 cells (Griess); format: cell-based, mouse; conditions: Raw 264.7, LPS 500 ng/ml, 24 hours
# Experimental: Raw 264.7 (ATCC TIB71) cells were inoculated in a 96-well plate containing the same medium as used in Experimental Example 1 at the density of 1×10^5 cells/well. The cells were cultured in 5% CO2 at 37° C. for 4 hours to attach the cells onto the plate. The cells were treated with each sample at different concentrations, followed by further culture for 1 hour. […] were treated thereto at the final concentration of 500 ng/ml, followed by further culture for 24 hours. 100 μl of the supernatant was taken and transferred in a new plate, which was mixed with Griess reagent (a mixture of 1% sulfanilamide, 0.1% N-[1-naphthyl]-ethylenediamine dihydrochloride, and 5% phosphoric acid), followed by reaction for 10 minutes. Then, OD540 was measured. NO generation was quantified by using the sodium nitrite standard curve prepared from […] dissolved in the same medium at different concentrations. Considering the NO generation of the inflammation induced macrophages as 100%, the NO generation inhibition rate was calculated and presented in Table 7.
# [2] = test system: interleukin 13; experiment: Interleukin 13 in bronchoalveolar lavage fluid of asthma mice (ELISA); format: in vivo, mouse; conditions: OVA asthma Balb/c mice, 5 or 15 mg/kg PO, FIG. 3
# Experimental: (§1) 6 week old Balb/c female mice in the average weight of 20 g were adapted for 1 week. 2 mg of aluminum hydroxide (A8222, Sigma, St. Louis, Mo.) and 20 μg of ovalbumin (A5503, sigma, St. Louis, Mo.) were suspended in phosphate buffer (pH 7.4). Each mouse was administered with 200 μl of the phosphate buffer suspension via intraperitoneal injection for sensitization at 2 weeks intervals. The mouse was forced to inhale 1% ovalbumin (OVA) through ultrasonic atomizer for 30 minutes a day for 3 days after the first intraperitoneal injection of ovalbumin. 24 hours after the antigen administration, airway hyperreactivity was measured. 48 hours later, a lethal dose of pentobarbital (Entobar, Hanlim Pharma. Co., Ltd.) was administered to the mouse. The bronchus was opened and the alveoli were washed with 1.4 ml of saline. Then, the test samples were obtained. The normal control (NC) was not administered with ovalbumin nor inhaled. The asthma induced group (OVA) was administered with ovalbumin and inhaled to induce bronchial asthma. […]
# (§2) After performing the experiment of Experimental Example <3-1> above, Th2 cytokine (interleukin 5, 13) in bronchoalveolar was measured by sandwich type enzyme immunoassay. […] The content of each cytokine was measured using the kit according to the manufacturer's instruction.
# [3] = test system: Raw 264.7 (ATCC TIB71) cells; experiment: Evaluation of cell survival rate of macrophages (MTT); format: cell-based, mouse; conditions: Raw 264.7, 10 μM, 24 hours
# Experimental: Raw 264.7 (ATCC TIB71) cells, the mouse derived macrophages', were inoculated in a 96-well plate containing DMEM (Dulbecco's modified Eagle medium; Welgene, Korea) supplemented with 10% FBS (Fetal Bovine Serum), 2 mM glutamine, penicillin (100 unit/ml), and streptomycin (100 μg/ml) at the density of 1×10^4 cells/well. The cells were cultured in 5% CO2 at 37° C. for 4 hours to attach the cells onto the plate. Next, the cells were treated with each sample at different concentrations, followed by further culture for 24 hours. To investigate the cell survival rate, 5 mg/ml of MTT (3-(4,5-dimethylthiazol-2-yl)-2,5-diphenyltetrazoliumbromide, Amresco, OH, USA) was distributed thereto (10 μl/well), followed by culture for 4 hours. Then, the supernatant was eliminated. Formazan reduced from MTT by mitochondria was dissolved in 100 μl of DMSO and then OD570 was measured. 0.2% DMSO was used for the negative control.
# [4] = test system: Tumor Necrosis Factor Alpha (TNF-alpha); experiment: Inhibition of TNF-alpha generation in LPS-treated Raw 264.7 cells (ELISA); format: cell-based; conditions: Mus musculus, RAW264.7; Raw 264.7, LPS treated; read-out: Grades of IC50 on TNF-alpha generation
# Experimental: Raw 264.7 cells were distributed by the same manner as described in Experimental Example <2-1>, which were treated with the samples selected due to their high NO and IL-6 suppressing effect at different concentrations. TNF-alpha included in the supernatant was measured by enzyme-linked immunosorbent assay (TNF-alpha ELISA kit, R&D Systems, MN, USA).
# Particularly, 100-fold diluted supernatant was distributed in a 96-well plate on which TNF-alpha antibody was attached, followed by adhesion for 2 hours. The supernatant remaining after the adhesion was washed with a washing buffer. The detection antibody and HRP were adhered on the washed plate for 1 hour. The remaining antibody was washed. Color development was induced by using TMB substrate. The reaction was terminated with sulfuric acid solution. Then, OD450 was measured. TNF-alpha in the supernatant was quantified by using the standard curve made with the standard TNF-alpha included in the kit. TNF-alpha suppression rate was calculated by measuring the same concentration that could inhibit TNF-alpha generation up to 50% in the LPS treated group and the results are shown in Table 9.
# [5] = test system: inflammatory cells (eosinophils); experiment: Number of inflammatory cells in bronchoalveolar lavage fluid (Diff-Quick); format: in vivo, mouse; conditions: OVA asthma Balb/c mice, 5 or 15 mg/kg PO, FIG. 5
# Experimental: as §1, with “asthma. The comparative control was orally administered with dexamethasone (2 mg/kg, PO) one hour before the inhalation (DEX).” for “asthma.”
# After performing the experiment of Experimental Example <3-1> above, the number of inflammatory cells in bronchoalveolar lavage fluid was measured by Diff-Quick staining.
# [6] = test system: bronchial asthma induced animal model; experiment: Airway hyperreactivity (Penh) in ovalbumin-induced bronchial asthma mice; format: in vivo, mouse; conditions: OVA asthma Balb/c mice, 5 or 15 mg/kg PO, FIG. 1
# Experimental: as §1, with “inhaled.” for “inhaled. The asthma induced group (OVA) was administered with ovalbumin and inhaled to induce bronchial asthma.”
# After performing the experiment of Experimental Example <3-1> above, airway resistance was measured by using one chamber plethysmography (All Medicus, Seoul) to obtain Penh (enhanced pause) values which were the mathematically calculated numbers reflecting airway obstruction in order to measure airway hyperreactivity. To measure Penh value, basal value in normal breathing status was first measured. […]
# [7] = test system: interleukin 5; experiment: Interleukin 5 in bronchoalveolar lavage fluid of asthma mice (ELISA); format: in vivo, mouse; conditions: OVA asthma Balb/c mice, 5 or 15 mg/kg PO, FIG. 2
# Experimental: as §1, §2
smiles,measurement,setting,value
"COc1cc(CCCO)cc2cc(-c3ccc(C)cc3)oc12 [Example 4, 3-(7-methoxy-2-p-tolylbenzofuran-5-yl)propane-1-ol]",Grades of NO generation inhibition rate (%),[1],B (B: 25<B≤35)
same,content of interleukin 13 in bronchoalveolar lavage fluid,[2],significantly reduced
same,"Grades of cell survival rate (%, in 10 μM)",[3],A (A: 90<A≤100)
same,IC50,[4],1 to 3 µM
same,infiltration of inflammatory cells (eosinophils) in bronchoalveolar lavage fluid,[5],efficiently reduce
same,Penh value (airway hyperreactivity),[6],significantly reduced
same,content of interleukin 5 in bronchoalveolar lavage fluid,[7],significantly reduced
